“And” between values parts separate entries of the source, which are not always exact repeats. Equal entries are not always repeated. Toxic doses and inconclusive results are not listed.
Test system: BDF1 mice, P388 leukemia ip, median survival T/C
Assay: NCI In Vivo Anticancer Drug Screen. Data for tumor model P388 Leukemia (intraperitoneal) in B6D2F1 (BDF1) mice
Conditions: endpoint: median survival time, higher = longer survival
In short: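 In tumour-bearing mice, survival after compound treatment is set against the vehicle group and given as a quotient.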

Which T/C (dose: 0.39 mg/kg/injection, schedule: Q01DX009 (ip), vehicle: saline) does the source give for N[C@H](C(=O)O)[C@@H]1CC(Cl)=NO1 here?
Its T/C is 150 % of control.

And the T/C (dose: 0.78 mg/kg/injection, schedule: Q01DX009 (ip), vehicle: saline)?
Its T/C is 175 % of control.

And the T/C (dose: 1.0 mg/kg/injection, schedule: Q01DX009 (ip), vehicle: saline)?
The T/C was 183 % of control.

And the T/C (dose: 1.56 mg/kg/injection, schedule: Q01DX009 (ip), vehicle: saline)?
Its T/C is 175 % of control.

What about the T/C (dose: 2.0 mg/kg/injection, schedule: Q01DX009 (ip), vehicle: saline) of the same compound?
Its T/C is 193 % of control.

And the T/C (dose: 3.12 mg/kg/injection, schedule: Q01DX009 (ip), vehicle: saline)?
The T/C was 95 % of control.

What about the T/C (dose: 3.12 mg/kg/injection, schedule: Q04DX003 (ip), vehicle: saline) of the same compound?
The T/C was 113 % of control.

What about the T/C (dose: 4.0 mg/kg/injection, schedule: Q01DX009 (ip), vehicle: saline) of the same compound?
The T/C was 220 % of control.

What about the T/C (dose: 6.25 mg/kg/injection, schedule: Q01DX009 (ip), vehicle: saline) of the same compound?
Its T/C is 90 % of control.

And the T/C (dose: 8.0 mg/kg/injection, schedule: Q01DX009 (ip), vehicle: saline)?
Its T/C is 250 % of control.

What about the T/C (dose: 12.5 mg/kg/injection, schedule: Q04DX003 (ip), vehicle: saline) of the same compound?
Its T/C is 174 % of control.

What about the T/C (dose: 16.0 mg/kg/injection, schedule: Q01DX009 (ip), vehicle: saline) of the same compound?
Its T/C is 118 % of control.

What about the T/C (dose: 21.6 mg/kg/injection, schedule: Q04DX003 (ip), vehicle: saline) of the same compound?
Its T/C is 169 % of control.

What about the T/C (dose: 25.0 mg/kg/injection, schedule: Q04DX003 (ip), vehicle: saline) of the same compound?
Its T/C is 220 % of control.

And the T/C (dose: 32.0 mg/kg/injection, schedule: Q01DX009 (ip), vehicle: saline)?
The T/C was 91 % of control.

What about the T/C (dose: 50.0 mg/kg/injection, schedule: Q04DX003 (ip), vehicle: saline) of the same compound?
Its T/C is 231 % of control.

And the T/C (dose: 50.0 mg/kg/injection, schedule: Q04DX003 (ip), vehicle: water)?
Its T/C is 117 % of control.

And the T/C (dose: 100.0 mg/kg/injection, schedule: Q04DX003 (ip), vehicle: saline)?
Its T/C is 101 % of control.

What about the T/C (dose: 200.0 mg/kg/injection, schedule: Q04DX003 (ip), vehicle: water) of the same compound?
Its T/C is 209 % of control.

And the T/C (dose: 400.0 mg/kg/injection, schedule: Q04DX003 (ip), vehicle: water)?
The T/C was 196 % of control.

Which T/C (dose: 100.0 mg/kg/injection, schedule: Q01DX001 (ip), vehicle: Klucel (hydroxypropylcellulose) (HPC)) does the source give for COc1cc2c(cc1OC)C(CNC(=O)/C=C/c1ccccc1)C2 (configuration not stated) here?
Its T/C is 115 % of control.

What about the T/C (dose: 200.0 mg/kg/injection, schedule: Q01DX001 (ip), vehicle: Klucel (hydroxypropylcellulose) (HPC)) of the same compound?
Its T/C is 110 % of control.

What about the T/C (dose: 400.0 mg/kg/injection, schedule: Q01DX001 (ip), vehicle: Klucel (hydroxypropylcellulose) (HPC)) of the same compound?
The T/C was 120 % of control.

Which T/C (dose: 50.0 mg/kg/injection, schedule: Q01DX009 (ip), vehicle: saline with Tween-80) does the source give for CCC[N+]12C(O)C(CC)C3CC1C1N(C)c4ccc(Br)cc4C14CC2C3C4O (configuration not stated) here?
The T/C was 102 % of control.

What about the T/C (dose: 100.0 mg/kg/injection, schedule: Q01DX009 (ip), vehicle: saline with Tween-80) of the same compound?
Its T/C is 105 % of control.

Which results are given for O=C(CC(c1ccccc1)N1CCN(c2ccccc2)CC1)c1ccccc1 (configuration not stated)?
T/C (dose: 100.0 mg/kg/injection, schedule: Q04DX003 (ip), vehicle: Klucel (hydroxypropylcellulose) (HPC)): 100 % of control; T/C (dose: 200.0 mg/kg/injection, schedule: Q04DX003 (ip), vehicle: Klucel (hydroxypropylcellulose) (HPC)): 100 % of control; T/C (dose: 400.0 mg/kg/injection, schedule: Q04DX003 (ip), vehicle: Klucel (hydroxypropylcellulose) (HPC)): 100 % of control

With COc1ccc(CC2C(=O)NC(C)C(=O)N(C)C3Cc4ccc(cc4)Oc4cc(ccc4O)CC(C(=O)NC(C)C(=O)NC(C)C(=O)N2C)N(C)C3=O)cc1 (configuration not stated) as the compound, how does the T/C (dose: 0.04 mg/kg/injection, schedule: Q01DX009 (ip), vehicle: saline) read?
Its T/C is 163 % of control.

What about the T/C (dose: 0.07 mg/kg/injection, schedule: Q01DX009 (ip), vehicle: saline) of the same compound?
The T/C was 181 % of control.

What about the T/C (dose: 0.11 mg/kg/injection, schedule: Q01DX009 (ip), vehicle: saline with Tween-80) of the same compound?
Its T/C is 196 % of control.

And the T/C (dose: 0.11 mg/kg/injection, schedule: Q01DX009 (ip), vehicle: saline)?
The T/C was 163 % of control.

What about the T/C (dose: 0.16 mg/kg/injection, schedule: Q01DX009 (ip), vehicle: saline with Tween-80) of the same compound?
Its T/C is 216 % of control.

What about the T/C (dose: 0.25 mg/kg/injection, schedule: Q01DX009 (ip), vehicle: saline with Tween-80) of the same compound?
Its T/C is 160 % of control and 186 % of control.

What about the T/C (dose: 0.5 mg/kg/injection, schedule: Q01DX009 (ip), vehicle: saline with Tween-80) of the same compound?
Its T/C is 186 % of control.

What about the T/C (dose: 1.0 mg/kg/injection, schedule: Q01DX009 (ip), vehicle: saline with Tween-80) of the same compound?
The T/C was 189 % of control.

And the T/C (dose: 2.0 mg/kg/injection, schedule: Q01DX009 (ip), vehicle: saline with Tween-80)?
The T/C was 208 % of control.

What about the T/C (dose: 4.32 mg/kg/injection, schedule: Q04DX003 (ip), vehicle: other) of the same compound?
Its T/C is 161 % of control and 212 % of control.

What about the T/C (dose: 7.2 mg/kg/injection, schedule: Q04DX003 (ip), vehicle: other) of the same compound?
The T/C was 163 % of control and 208 % of control.

What about the T/C (dose: 10.0 micrograms/kg/injection, schedule: Q01DX009 (ip), vehicle: saline with Tween-80) of the same compound?
The T/C was 108 % of control.

What about the T/C (dose: 20.0 micrograms/kg/injection, schedule: Q01DX009 (ip), vehicle: saline with Tween-80) of the same compound?
Its T/C is 108 % of control.

What about the T/C (dose: 40.0 micrograms/kg/injection, schedule: Q01DX009 (ip), vehicle: saline with Tween-80) of the same compound?
The T/C was 119 % of control.
